Laboratory results as given in article PMC5224969 (ChemMedChem, 2016).
Read-outs that look alike come from different tables or passages of the source.

Experiments:
Abl [1] = target: T1, Abl (Homo sapiens, UniProt P00519); assay: screening at a fixed concentration against Abl; format: biochemical; conditions: fixed concentration 250 pM
Src [2] = target: T2, Src (Homo sapiens, UniProt P12931); assay: standard P32 kinase assay, IC50, Src catalytic domain; format: biochemical; conditions: for Net change in IC50 (%Dasatinib) Src: compared to dasatinib; for IC50: read-out: IC50 Src, P32 kinase assay, polyE4Y substrate, 200 μM ATP
T2 sequence (P12931 270-523 limits assumed, species assumed): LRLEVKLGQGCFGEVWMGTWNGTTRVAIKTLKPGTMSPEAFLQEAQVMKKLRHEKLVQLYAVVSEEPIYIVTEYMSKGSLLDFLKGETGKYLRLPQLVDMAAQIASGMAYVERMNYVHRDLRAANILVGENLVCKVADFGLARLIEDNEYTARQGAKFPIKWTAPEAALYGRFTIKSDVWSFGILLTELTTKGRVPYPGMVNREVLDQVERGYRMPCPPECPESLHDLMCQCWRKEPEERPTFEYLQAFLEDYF

BV-173 cells = assay: MTT cell viability assay, BV-173; format: cell-based, human; conditions: read-out: IC50 BV-173
K562 cells = assay: MTT cell viability assay, K562; format: cell-based, human; conditions: read-out: IC50 K562
Abl [3] = target: T1, Abl; assay: standard P32 kinase assay, IC50, Abl; format: biochemical; conditions: for Net change in IC50 (%Dasatinib) Abl: compared to dasatinib; for IC50: read-out: IC50 Abl, P32 kinase assay, CrkL substrate, 200 μM ATP
Src [4] = target: T2, Src; assay: screening at a fixed concentration against Src; format: biochemical; conditions: fixed concentration 250 pM
Csk = Csk (Homo sapiens, UniProt P41240); assay: standard P32 kinase assay, IC50, Csk; format: biochemical; conditions: for Net change in IC50 (%Dasatinib) Csk: compared to dasatinib; for IC50: read-out: IC50 Csk, P32 kinase assay, polyE4Y substrate, 200 μM ATP
Panc-1 cells = assay: MTT cell viability assay, Panc-1; format: cell-based, human
[5] = system: PTK panel (Abl, Csk, Src); assay: P32 kinase assay, average over the PTK panel; format: biochemical; conditions: average of Abl, compared to dasatinib
[6] = stability in mouse plasma, LC/MS/MS; format: in vitro ADME

T1 sequence (P00519 whole entry, species assumed, the tested form may be a part): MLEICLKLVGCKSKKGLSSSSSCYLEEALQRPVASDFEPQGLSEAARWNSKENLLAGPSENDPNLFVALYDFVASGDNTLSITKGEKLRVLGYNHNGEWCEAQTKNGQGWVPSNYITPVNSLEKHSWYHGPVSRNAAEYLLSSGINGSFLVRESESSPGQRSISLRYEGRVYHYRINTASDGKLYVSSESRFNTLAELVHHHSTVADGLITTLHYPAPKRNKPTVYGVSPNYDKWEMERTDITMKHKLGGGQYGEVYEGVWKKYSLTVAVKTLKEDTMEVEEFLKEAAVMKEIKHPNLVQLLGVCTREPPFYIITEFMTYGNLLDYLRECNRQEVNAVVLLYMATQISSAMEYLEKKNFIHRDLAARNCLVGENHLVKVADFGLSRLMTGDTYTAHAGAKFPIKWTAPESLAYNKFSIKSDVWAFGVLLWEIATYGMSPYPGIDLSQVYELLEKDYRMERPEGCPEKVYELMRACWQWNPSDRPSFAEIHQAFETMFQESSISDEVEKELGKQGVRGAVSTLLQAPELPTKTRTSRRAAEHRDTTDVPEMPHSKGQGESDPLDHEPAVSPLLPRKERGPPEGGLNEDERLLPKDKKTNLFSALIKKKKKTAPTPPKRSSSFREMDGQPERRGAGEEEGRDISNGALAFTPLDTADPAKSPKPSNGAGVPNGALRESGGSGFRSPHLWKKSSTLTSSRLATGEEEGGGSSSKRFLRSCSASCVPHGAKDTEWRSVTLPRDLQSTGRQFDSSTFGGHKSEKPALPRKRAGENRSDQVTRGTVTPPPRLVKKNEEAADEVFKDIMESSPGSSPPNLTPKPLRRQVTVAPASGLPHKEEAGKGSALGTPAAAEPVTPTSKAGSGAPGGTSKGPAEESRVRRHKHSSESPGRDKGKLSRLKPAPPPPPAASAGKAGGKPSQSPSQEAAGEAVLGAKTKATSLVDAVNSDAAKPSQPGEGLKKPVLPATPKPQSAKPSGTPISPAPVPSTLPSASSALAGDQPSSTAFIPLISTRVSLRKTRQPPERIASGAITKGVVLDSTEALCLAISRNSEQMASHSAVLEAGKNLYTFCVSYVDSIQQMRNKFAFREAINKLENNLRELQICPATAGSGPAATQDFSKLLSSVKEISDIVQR

inhibition relative to dasatinib, Abl (Abl [1]) | Net change in IC50 (%Dasatinib) Src (Src [2]) [%] | IC50 (Src [2]) [nM] | IC50 (K562 cells; MTT, 72 h) [nM] | Selectivity A/S (ratio of IC50 Abl over Src) (Abl [3]) | Net change in IC50 (%Dasatinib) Abl (Abl [3]) [%] | IC50 (Abl [3]) [nM] | inhibition relative to dasatinib, Src (Src [4]) | Selectivity C/A (ratio of IC50 Csk over Abl) (Csk) | Selectivity C/S (ratio of IC50 Csk over Src) (Csk) | Net change in IC50 (%Dasatinib) Csk (Csk) [%] | IC50 (Csk) [nM] | IC50 Panc-1 (Panc-1 cells; MTT, 72 h) | Net change in IC50 (%Dasatinib) Avg [5] [%] | stability in mouse plasma ([6]; 0, 15, 30, 60, 120 min, dasatinib formation monitored) | T1/2 in mouse plasma ([6]; 0-120 min incubation) [min] | IC50 (K562 cells; Homo sapiens, K562, 72 h) [nM] | IC50 (Panc-1 cells; Homo sapiens, PANC-1, 72 h, read-out: IC50 Panc-1) [µM] | Structure (SMILES) | IC50 (BV-173 cells; MTT, 72 h) [nM] | IC50 (BV-173 cells; Homo sapiens, BV-173, 72 h) [nM]
inhibited comparably to dasatinib | −11 | < 0.33 | < 0.0512 | > 6.4 | 169 | 2.1 | inhibited comparably to dasatinib | 2.6 | > 16.7 | −21 | 5.5 | no activity | 46 | completely metabolized | < 5 |  |  | CC(=O)OCCN1CCN(c2cc(Nc3ncc(C(=O)Nc4c(C)cccc4Cl)s3)nc(C)n2)CC1 [Compound 16] | < 0.0512 | 
 | 5 | < 0.39 |  | > 7.7 | 285 | 3 |  | 7.0 | > 53.8 | 200 | 21 |  | 163 |  |  |  |  | Cc1nc(Nc2ncc(C(=O)Nc3c(C)cccc3Cl)s2)cc(N2CCN(CCOC(=O)[C@H](C)N)CC2)n1 [Compound 3] |  | 
 |  |  |  |  |  |  |  |  |  |  |  |  |  |  |  |  |  | CN[C@@H]1C[C@H]2O[C@@](C)([C@@H]1OC)n1c3ccccc3c3c4c(c5c6ccccc6n2c5c31)C(=O)NC4 [Staurosporine, staurosporine] |  | 4.77
 |  |  |  |  |  |  |  |  |  |  |  |  |  |  |  | < 0.0512 | 26.3 | Cc1nc(Nc2ncc(C(=O)Nc3c(C)cccc3Cl)s2)cc(N2CCN(CCO)CC2)n1 [Compound 1, N-(2-chloro-6-methylphenyl)-2-((6-(4-(2-hydroxyethyl)piperazin-1-yl)-2-methylpyrimidin-4-yl)amino)thiazole-5-carboxamide, reference compound] |  | < 0.0512
